Assay results as given in article PMC9116245, “New 1,2,3-triazole linked ciprofloxacin-chalcones induce DNA damage by inhibiting human topoisomerase I& II and tubulin polymerization” (Journal of Enzyme Inhibition and Medicinal Chemistry, 2022).

Key:
HT-29 = assay: MTT assay; assay type: cell-based; settings: Homo sapiens; HT-29, MTT assay, 24 h incubation
How it was run: (§1)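 Colorectal lines treated with 1, 5, 10, 20, 40, 80 or 100 µM compound, or DMSO vehicle. Proliferation read by MTT reduction.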

HCT116 = assay: MTT assay; assay type: cell-based; settings: Homo sapiens, HCT-116, 24 h incubation
How it was run: as §1

Caco-2 = assay: MTT assay; assay type: cell-based; settings: Homo sapiens; Caco-2, MTT assay, 24 h incubation
How it was run: as §1

UACC-257 = assay: NCI one-dose screen; assay type: cell-based; settings: Homo sapiens; UACC-257, 10 µM; read-out: Growth Percent
How it was run: (§2)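 In vitro growth inhibition screen by the National Cancer Institute; compound concentration fixed at 10 µM; panel of 59 human tumour cell lines. Results given as percent growth.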

A549/ATCC = assay: NCI one-dose screen; assay type: cell-based; settings: Homo sapiens, read-out: Growth Percent
How it was run: as §2

OVCAR-4 = assay: NCI one-dose screen; assay type: cell-based; settings: Homo sapiens; OVCAR-4, 10 µM; read-out: Growth Percent
How it was run: as §2

HL-60(TB) = assay: NCI one-dose screen; assay type: cell-based; settings: Homo sapiens, read-out: Growth Percent
MDA-MB-435 = assay: NCI one-dose screen; assay type: cell-based; settings: Homo sapiens; MDA-MB-435, 10 µM; read-out: Growth Percent
How it was run: as §2

HCC-2998 = assay: NCI one-dose screen; assay type: cell-based; settings: Homo sapiens; HCC-2998, 10 µM; read-out: Growth Percent
How it was run: as §2

SW-620 = assay: NCI one-dose screen; assay type: cell-based; settings: Homo sapiens; SW-620, 10 µM; read-out: Growth Percent
How it was run: as §2

CCRF-CEM = assay: NCI one-dose screen; assay type: cell-based; settings: Homo sapiens, read-out: Growth Percent
How it was run: as §2

MCF7 = assay: NCI one-dose screen; assay type: cell-based; settings: Homo sapiens; MCF7, 10 µM; read-out: Growth Percent
How it was run: as §2

OVCAR-3 = assay: NCI one-dose screen; assay type: cell-based; settings: Homo sapiens; OVCAR-3, 10 µM; read-out: Growth Percent
How it was run: as §2

CAKI-1 = assay: NCI one-dose screen; assay type: cell-based; settings: Homo sapiens; CAKI-1, 10 µM; read-out: Growth Percent
How it was run: as §2

T-47D = assay: NCI one-dose screen; assay type: cell-based; settings: Homo sapiens, T47D, read-out: Growth Percent
How it was run: as §2

MALME-3M = assay: NCI one-dose screen; assay type: cell-based; settings: Homo sapiens, read-out: Growth Percent
How it was run: as §2

NCI-H226 = assay: NCI one-dose screen; assay type: cell-based; settings: Homo sapiens; NCI-H226, 10 µM; read-out: Growth Percent
How it was run: as §2

ACHN = assay: NCI one-dose screen; assay type: cell-based; settings: Homo sapiens, read-out: Growth Percent
How it was run: as §2

LOX IMVI = assay: NCI one-dose screen; assay type: cell-based; settings: Homo sapiens, read-out: Growth Percent
How it was run: as §2

IGROV1 = assay: NCI one-dose screen; assay type: cell-based; settings: Homo sapiens, IGROV-1; IGROV1, 10 µM; read-out: Growth Percent
How it was run: as §2

OVCAR-5 = assay: NCI one-dose screen; assay type: cell-based; settings: Homo sapiens; OVCAR-5, 10 µM; read-out: Growth Percent
How it was run: as §2

HS 578T = assay: NCI one-dose screen; assay type: cell-based; settings: Homo sapiens, read-out: Growth Percent
How it was run: as §2

A498 = assay: NCI one-dose screen; assay type: cell-based; settings: Homo sapiens; A498, 10 µM; read-out: Growth Percent
How it was run: as §2

HCT-116 = assay: NCI one-dose screen; assay type: cell-based, human; settings: HCT-116, 10 µM
Experimental: (§3) For screening of anticancer properties, all the developed compounds were chosen by the (NCI) for in-vitro antitumor evaluation. The assay was carried out using 59 human cancer cell lines obtained from nine tumour subpanels (breast, ovarian, melanoma, leukaemia, renal, CNS, lung, prostate, and colon cancer cell lines). Compounds were assessed at a 10 µM concentration. […] Also, hybrids 4a, 4b, 4e, 4i and 4j produced significant anti-proliferative effect in several cancer cells, particularly in leukaemia (RPMI-8226) and colon (HCT116) cells with growth percent of 47.87, −14.59, −24.56, −24.42, −15.84, −9.74, −53.36, −10.26, −31.29, and −39.51%, respectively.
(§4) The method description for NCI anticancer screening is provided in detail in the standard NCI-60 testing protocol.

RPMI-8226 = assay: NCI one-dose screen; assay type: cell-based, human; settings: RPMI-8226, 10 µM
Experimental: as §3, §4

polymerised tubulin = assay: Western blot of polymerised tubulin in HCT116 cells; assay type: cell-based, human; settings: HCT116, IC50 values of compounds
Experimental: The process of tubulin polymerisation in the cells is important for the completion of mitosis and is targeted for cancer treatment. It has been reported that the suppression of tubulin polymerisation will arrest the cells at the G2/M and it eventually leads to cell death. To test the tubulin-disruptive effect of the CP hybrids, HCT116 cells were analysed by immunocytochemistry. HCT116 cells were incubated for 36 h with IC50 of the CP hybrids (4a, 4b, 4e, 4i, and 4j), nocodazole (a well-known tubulin polymerisation inhibitor, as a positive control), DMSO or Paclitaxel (a well-known tubulin polymerisation inducer, as a negative control), and tubulin was visualised by immunofluorescence microscopy. An antibody for α-tubulin was used. […] Moreover, a Western blot was performed to verify the tubulin polymerisation inhibition ability of the synthesised compounds (Figure 8(B)). The level of polymerised tubulin was decreased in HCT116 cells treated with IC50 values of CP hybrids 4a, 4b, 4e, 4i, 4j, or nocodazole.
Western blotting analysis for HCT116 cells was performed according to the reported procedure in the literature[77–79] to determine the effects of CP hybrids; 4a, 4b, 4e, 4i, and 4j on the expression of polymerised tubulin, γH2AX, p-ATR, p-CHK1, and p-Cdc25C by using the appropriate antibody. See Supplementary Appendix A.

[1] = tested on: 59 human cancer cell lines; assay: NCI one-dose screen, whole panel; assay type: cell-based; settings: Homo sapiens, mean over the panel, read-out: Mean Growth Percent
Experimental: as §3, §4

[2] = Homo sapiens, read-out: Growth Percent

Q: How did the IC50 (HT-29) turn out when O=C(/C=C/c1cccc(Cl)c1)c1ccc(-n2cc(CN3CCN(c4cc5c(cc4F)c(=O)c(C(=O)O)cn5C4CC4)CC3)nn2)cc1 [Compound 4b, (E)-7-(4-((1–(4-(3-(3-chlorophenyl)acryloyl)phenyl)-1H-1,2,3-triazol-4-yl)methyl)piperazin-1-yl)-1-cyclopropyl-6-fluoro-4-oxo-1,4-dihydroquinoline-3-carboxylic acid] was run?
A: The IC50 was 42.9 ± 5.14 µM.

Q: And the IC50 (HCT116)?
A: Its IC50 is 4.81 ± 1.21 µM.

Q: And the IC50 (Caco-2)?
A: The IC50 was 24.4 ± 3.07 µM.

Q: And the activity at 10 µM (UACC-257)?
A: Its activity at 10 µM is 87.7%.

Q: And the activity at 10 µM (A549/ATCC)?
A: Its activity at 10 µM is 71.6%.

Q: What about the activity at 10 µM (OVCAR-4) of the same compound?
A: The activity at 10 µM was 62.9%.

Q: And the activity at 10 µM (HL-60(TB))?
A: Its activity at 10 µM is 90.3%.

Q: And the activity at 10 µM (MDA-MB-435)?
A: Its activity at 10 µM is 74%.

Q: What about the activity at 10 µM (HCC-2998) of the same compound?
A: The activity at 10 µM was 59.3%.

Q: What about the activity at 10 µM (SW-620) of the same compound?
A: Its activity at 10 µM is 85.4%.

Q: What about the activity at 10 µM (CCRF-CEM) of the same compound?
A: Its activity at 10 µM is 29.9%.

Q: And the activity at 10 µM (MCF7)?
A: Its activity at 10 µM is 37.6%.

Q: What about the activity at 10 µM (OVCAR-3) of the same compound?
A: The activity at 10 µM was 57.3%.

Q: And the activity at 10 µM (CAKI-1)?
A: Its activity at 10 µM is 52.5%.

Q: What about the activity at 10 µM (T-47D) of the same compound?
A: Its activity at 10 µM is 75.3%.

Q: What about the activity at 10 µM (MALME-3M) of the same compound?
A: The activity at 10 µM was 94.5%.

Q: And the activity at 10 µM (NCI-H226)?
A: The activity at 10 µM was 82.1%.

Q: And the activity at 10 µM (ACHN)?
A: The activity at 10 µM was 77.7%.

Q: And the activity at 10 µM (LOX IMVI)?
A: The activity at 10 µM was 36.9%.

Q: What about the activity at 10 µM (IGROV1) of the same compound?
A: The activity at 10 µM was 51.8%.

Q: And the activity at 10 µM (OVCAR-5)?
A: The activity at 10 µM was 84.7%.

Q: What about the activity at 10 µM (HS 578T) of the same compound?
A: The activity at 10 µM was 73.7%.

Q: What about the activity at 10 µM (A498) of the same compound?
A: The activity at 10 µM was 70.8%.

Q: What about the “Growth Percent” value (HCT-116) of the same compound?
A: Its value is -53.36%.

Q: What about the activity at 10 µM (HCT-116; [2]) of the same compound?
A: The activity at 10 µM was -53.4%.

Q: What about the activity at 10 µM (RPMI-8226; [2]) of the same compound?
A: The activity at 10 µM was -14.6%.

Q: What about the “Growth Percent” value (RPMI-8226) of the same compound?
A: The value was -14.59%.

Q: And the “level of polymerised tubulin, Western blot” value (polymerised tubulin)?
A: Its value is “decreased”.

Q: And the activity at 10 µM [1]?
A: Its activity at 10 µM is 65%.
